Test in all cases: radiometric protein kinase assay (33PanQinase Activity Assay, ProQinase Free Choice Kinase Assay)
Holding throughout (assay type): biochemical

One test addresses SIK1 (Homo sapiens (Human), UniProt P57059). The conditions noted are these: read-out: SIK1 IC50 rank.
The next test deals with SIK2 (Homo sapiens (Human), UniProt Q9H0K1). Particulars: ATP 1.0 uM, read-out: SIK2 IC50 rank.
A further test concerns the target SIK3 (Homo sapiens (Human), UniProt Q9Y2K2). The conditions noted are these: read-out: SIK3 IC50 rank.
The target in the next test is ABL1 wt (Homo sapiens (Human), UniProt P00519). Particulars: indicative IC50, Table 4; ATP 0.3 uM; read-out: ABL1 IC50 rank.
In another test the target is SRC (GST-HIS-tag) (Homo sapiens (Human), UniProt P12931). Particulars: indicative IC50, Table 4; ATP 0.3 uM; read-out: SRC IC50 rank.
The mark [1] stands for this setting: indicative IC50, Table 2A, ATP 3.0 uM.
Setting [2] is: indicative IC50, Table 2A, ATP 1.0 uM.
The mark [3] stands for this setting: indicative IC50, Table 4, ATP 3.0 uM.
[4] abbreviates: indicative IC50, Table 4, ATP 1.0 uM.

The values below come from US20250340886A1, “INTRACELLULAR KINASE ASSOCIATED WITH RESISTANCE AGAINST ANTI-TUMOUR IMMUNE RESPONSES, AND USES THEREOF” (iOmx Therapeutics AG, priority 2017, published 2025).

SMILES strings stand for the structures. Like-named read-outs stand apart in the source and are kept apart here. Where only a bound is given, the exact number is not on record here.

As usually defined, the IC50 is the concentration that inhibits the measured activity by half.

Chain of SIK2 (Q9H0K1 whole entry): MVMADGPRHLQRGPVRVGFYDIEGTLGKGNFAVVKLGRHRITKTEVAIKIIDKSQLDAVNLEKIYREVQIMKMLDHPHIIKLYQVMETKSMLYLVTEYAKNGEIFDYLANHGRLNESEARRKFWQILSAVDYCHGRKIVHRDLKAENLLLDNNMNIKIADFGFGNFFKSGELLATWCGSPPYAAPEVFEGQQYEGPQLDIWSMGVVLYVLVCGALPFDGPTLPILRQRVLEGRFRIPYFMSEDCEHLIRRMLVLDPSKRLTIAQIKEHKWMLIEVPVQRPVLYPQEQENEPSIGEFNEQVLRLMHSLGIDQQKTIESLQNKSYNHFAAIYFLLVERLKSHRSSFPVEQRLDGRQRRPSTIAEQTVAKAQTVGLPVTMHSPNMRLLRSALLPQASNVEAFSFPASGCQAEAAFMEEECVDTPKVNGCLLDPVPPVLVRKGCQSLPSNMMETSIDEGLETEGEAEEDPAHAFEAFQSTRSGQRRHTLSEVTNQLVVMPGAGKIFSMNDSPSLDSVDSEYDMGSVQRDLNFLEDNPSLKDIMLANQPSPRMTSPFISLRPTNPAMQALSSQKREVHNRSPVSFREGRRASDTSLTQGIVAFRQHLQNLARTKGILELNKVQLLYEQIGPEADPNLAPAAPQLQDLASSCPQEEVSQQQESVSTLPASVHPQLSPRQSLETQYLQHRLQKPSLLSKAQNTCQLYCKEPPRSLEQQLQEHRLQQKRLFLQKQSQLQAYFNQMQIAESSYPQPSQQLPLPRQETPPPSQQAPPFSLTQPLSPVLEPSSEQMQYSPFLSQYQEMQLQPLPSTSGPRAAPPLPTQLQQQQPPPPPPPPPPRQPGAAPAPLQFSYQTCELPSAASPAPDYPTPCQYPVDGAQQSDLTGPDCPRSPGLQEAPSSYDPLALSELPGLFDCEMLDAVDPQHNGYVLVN
Chain of SIK1 (P57059 whole entry): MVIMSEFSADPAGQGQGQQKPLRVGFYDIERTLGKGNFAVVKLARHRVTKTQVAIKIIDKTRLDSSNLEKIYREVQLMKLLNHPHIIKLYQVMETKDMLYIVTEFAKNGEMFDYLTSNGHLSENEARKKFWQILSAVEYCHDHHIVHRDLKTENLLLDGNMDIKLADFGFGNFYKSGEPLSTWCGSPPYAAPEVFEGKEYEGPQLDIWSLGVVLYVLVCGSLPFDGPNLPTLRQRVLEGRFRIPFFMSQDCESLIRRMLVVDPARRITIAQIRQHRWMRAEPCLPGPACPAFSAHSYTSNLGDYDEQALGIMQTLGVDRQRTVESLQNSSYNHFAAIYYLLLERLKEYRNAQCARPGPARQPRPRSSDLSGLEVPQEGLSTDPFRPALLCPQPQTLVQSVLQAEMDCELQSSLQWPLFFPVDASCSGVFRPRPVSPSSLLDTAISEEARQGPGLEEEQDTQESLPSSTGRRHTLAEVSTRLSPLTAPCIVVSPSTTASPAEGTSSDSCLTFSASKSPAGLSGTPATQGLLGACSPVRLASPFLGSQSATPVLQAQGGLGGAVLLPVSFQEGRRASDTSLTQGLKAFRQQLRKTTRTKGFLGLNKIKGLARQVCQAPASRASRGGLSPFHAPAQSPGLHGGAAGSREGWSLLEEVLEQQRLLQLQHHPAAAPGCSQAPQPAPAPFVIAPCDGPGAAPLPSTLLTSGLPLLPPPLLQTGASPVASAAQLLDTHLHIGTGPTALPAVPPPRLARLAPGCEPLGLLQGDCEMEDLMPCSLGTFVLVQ
Chain of SIK3 (Q9Y2K2 whole entry): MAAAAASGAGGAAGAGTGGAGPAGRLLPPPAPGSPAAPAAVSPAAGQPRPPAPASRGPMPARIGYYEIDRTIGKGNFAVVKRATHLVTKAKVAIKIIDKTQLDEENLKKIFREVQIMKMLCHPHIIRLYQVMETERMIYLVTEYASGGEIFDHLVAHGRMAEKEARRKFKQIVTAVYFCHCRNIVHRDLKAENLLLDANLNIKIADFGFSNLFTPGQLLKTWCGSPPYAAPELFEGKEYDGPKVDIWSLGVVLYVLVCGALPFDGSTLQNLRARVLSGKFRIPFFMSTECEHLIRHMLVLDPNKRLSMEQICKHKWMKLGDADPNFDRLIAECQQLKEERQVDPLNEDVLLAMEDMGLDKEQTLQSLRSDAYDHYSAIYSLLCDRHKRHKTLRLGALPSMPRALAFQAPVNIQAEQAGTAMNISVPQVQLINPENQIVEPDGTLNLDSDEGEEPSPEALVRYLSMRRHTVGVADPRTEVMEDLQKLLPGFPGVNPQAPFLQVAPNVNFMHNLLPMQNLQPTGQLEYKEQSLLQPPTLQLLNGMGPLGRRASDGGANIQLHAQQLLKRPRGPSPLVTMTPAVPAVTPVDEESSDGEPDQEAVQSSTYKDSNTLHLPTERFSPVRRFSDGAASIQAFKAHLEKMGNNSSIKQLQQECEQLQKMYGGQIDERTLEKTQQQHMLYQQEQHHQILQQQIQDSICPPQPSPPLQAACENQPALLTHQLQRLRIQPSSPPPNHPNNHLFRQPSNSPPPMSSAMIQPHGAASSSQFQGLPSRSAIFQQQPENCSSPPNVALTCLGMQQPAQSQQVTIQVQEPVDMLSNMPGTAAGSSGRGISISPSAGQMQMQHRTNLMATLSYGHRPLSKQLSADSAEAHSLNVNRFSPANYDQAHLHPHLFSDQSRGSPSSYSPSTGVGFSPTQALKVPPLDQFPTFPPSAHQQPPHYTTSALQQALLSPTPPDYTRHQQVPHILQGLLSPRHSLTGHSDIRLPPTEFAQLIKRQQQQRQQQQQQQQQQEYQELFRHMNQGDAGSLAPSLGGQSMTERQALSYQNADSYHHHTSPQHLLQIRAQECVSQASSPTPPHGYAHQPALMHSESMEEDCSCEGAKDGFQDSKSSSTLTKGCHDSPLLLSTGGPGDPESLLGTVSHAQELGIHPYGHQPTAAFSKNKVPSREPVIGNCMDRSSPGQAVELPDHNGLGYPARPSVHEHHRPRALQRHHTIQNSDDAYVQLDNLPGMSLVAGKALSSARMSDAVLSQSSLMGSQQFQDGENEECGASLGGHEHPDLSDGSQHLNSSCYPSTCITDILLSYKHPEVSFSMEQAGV
Chain of ABL1 wt (P00519 whole entry): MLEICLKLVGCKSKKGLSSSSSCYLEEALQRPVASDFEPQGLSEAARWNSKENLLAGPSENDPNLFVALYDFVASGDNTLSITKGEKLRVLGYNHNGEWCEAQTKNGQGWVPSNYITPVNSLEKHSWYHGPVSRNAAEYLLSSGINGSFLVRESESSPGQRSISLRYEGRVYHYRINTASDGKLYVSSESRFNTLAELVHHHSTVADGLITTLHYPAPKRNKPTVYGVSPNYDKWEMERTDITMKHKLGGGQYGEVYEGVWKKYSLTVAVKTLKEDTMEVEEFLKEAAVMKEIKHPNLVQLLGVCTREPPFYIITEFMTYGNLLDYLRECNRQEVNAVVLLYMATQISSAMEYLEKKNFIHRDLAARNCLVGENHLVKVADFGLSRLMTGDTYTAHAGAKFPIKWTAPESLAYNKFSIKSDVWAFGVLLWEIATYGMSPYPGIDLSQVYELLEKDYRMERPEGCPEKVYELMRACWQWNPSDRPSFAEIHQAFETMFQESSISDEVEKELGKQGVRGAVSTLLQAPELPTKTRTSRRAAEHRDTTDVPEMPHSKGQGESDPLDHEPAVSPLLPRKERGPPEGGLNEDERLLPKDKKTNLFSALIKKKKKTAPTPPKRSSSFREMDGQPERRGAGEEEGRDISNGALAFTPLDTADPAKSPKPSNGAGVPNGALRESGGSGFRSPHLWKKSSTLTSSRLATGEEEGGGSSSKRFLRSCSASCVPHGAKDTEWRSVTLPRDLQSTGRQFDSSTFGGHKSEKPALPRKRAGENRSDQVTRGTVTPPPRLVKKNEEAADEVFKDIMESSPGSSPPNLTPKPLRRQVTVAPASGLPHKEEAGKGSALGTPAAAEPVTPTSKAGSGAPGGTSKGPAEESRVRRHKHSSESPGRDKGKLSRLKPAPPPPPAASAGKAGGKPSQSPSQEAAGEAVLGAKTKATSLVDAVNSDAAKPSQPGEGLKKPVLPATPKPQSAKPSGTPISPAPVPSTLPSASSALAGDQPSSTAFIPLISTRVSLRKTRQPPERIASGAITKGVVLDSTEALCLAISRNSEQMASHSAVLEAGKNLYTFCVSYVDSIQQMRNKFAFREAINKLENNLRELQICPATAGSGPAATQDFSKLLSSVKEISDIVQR
Chain of SRC (GST-HIS-tag) (P12931 whole entry, looked up): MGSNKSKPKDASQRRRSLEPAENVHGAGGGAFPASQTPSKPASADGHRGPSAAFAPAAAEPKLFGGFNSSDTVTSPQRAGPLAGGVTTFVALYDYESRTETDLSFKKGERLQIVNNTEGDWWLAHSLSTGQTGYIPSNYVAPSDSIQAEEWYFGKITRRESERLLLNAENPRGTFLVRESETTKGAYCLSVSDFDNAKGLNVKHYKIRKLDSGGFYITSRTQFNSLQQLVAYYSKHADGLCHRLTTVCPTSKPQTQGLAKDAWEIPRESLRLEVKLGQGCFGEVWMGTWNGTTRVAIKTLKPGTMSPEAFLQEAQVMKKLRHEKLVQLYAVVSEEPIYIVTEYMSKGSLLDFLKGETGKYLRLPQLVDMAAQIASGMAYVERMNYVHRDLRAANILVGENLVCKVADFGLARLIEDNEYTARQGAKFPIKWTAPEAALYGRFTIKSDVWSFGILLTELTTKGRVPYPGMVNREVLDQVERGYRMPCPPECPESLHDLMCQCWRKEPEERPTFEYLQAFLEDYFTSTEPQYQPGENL

For the compound `Cc1nc(Nc2ncc(C(=O)Nc3c(F)cccc3Cl)s2)cc(N2CCN(CCO)CC2)n1` [Compound A1, N-(2-chloro-6-fluorophenyl)-2-((6-(4-(2-hydroxyethyl)piperazin-1-yl)-2-methylpyrimidin-4-yl)amino)thiazole-5-carboxamide], the IC50 on SIK1 (setting [1]) is under 100 nM; at SIK2 (indicative IC50, Table 2A), under 100 nM; on SIK3 (setting [2]), under 100 nM.

For the compound `Cc1nc(Nc2ncc(C(=O)Nc3c(F)cccc3F)s2)cc(N2CCN(CCO)CC2)n1` [Compound A2, N-(2,6-difluorophenyl)-2-((6-{4-(2-hydroxyethyl)piperazin-1-yl)-2-methylpyrimidin-4-yl)amino)thiazole-5-carboxamide], the IC50 is under 100 nM at SIK1 (setting [1]); under 100 nM on SIK2 (indicative IC50, Table 2A); under 100 nM at SIK3 (setting [2]).

Regarding `Cc1nc(Nc2ncc(C(=O)Nc3c(F)cccc3Br)s2)cc(N2CCN(CCO)CC2)n1` [Compound A3, N-(2-bromo-6-fluorophenyl)-2-((6-(4-(2-hydroxyethyl)piperazin-1-yl)-2-methylpyrimidin-4-yl)amino)thiazole-5-carboxamide], the IC50 at SIK1 (setting [1]) was under 100 nM; on SIK2 (indicative IC50, Table 2A), under 100 nM; on SIK3 (setting [2]), under 100 nM.

Consider `C#Cc1cccc(NC(=O)c2cnc(Nc3cc(N4CCN(CCO)CC4)nc(C)n3)s2)c1` [Compound A4, N-(3-ethynylphenyl)-2-((6-(4-(2-hydroxyethyl)piperazin-1-yl)-2-methylpyrimidin-4-yl)amino)thiazole-5-carboxamide], for which the IC50 at SIK1 (setting [1]) is over 1000 nM; at SIK2 (indicative IC50, Table 2A) it was over 100 nM; on SIK3 (setting [2]), over 1000 nM.

Consider `Cc1nc(Nc2ncc(C(=O)Nc3ccc(F)cc3)s2)cc(N2CCN(CCO)CC2)n1` [Compound A5, N-(4-fluorophenyl)-2-((6-(4-(2-hydroxyethyl)piperazin-1-yl)-2-methylpyrimidin-4-yl)amino)thiazole-5-carboxamide], for which the IC50 at SIK1 (setting [1]) is over 100 nM; on SIK2 (indicative IC50, Table 2A), over 100 nM; on SIK3 (setting [2]) it was over 1000 nM.

Consider `Cc1nc(Nc2ncc(C(=O)Nc3ccc(Br)cc3F)s2)cc(N2CCN(CCO)CC2)n1` [Compound A7, N-(4-bromo-6-fluorophenyl)-2-((6-(4-(2-hydroxyethyl)piperazin-1-yl)-2-methylpyrimidin-4-yl)amino)thiazole-5-carboxamide], for which the IC50 at SIK1 (setting [1]) is under 100 nM; on SIK2 (indicative IC50, Table 2A), over 100 nM; on SIK3 (setting [2]), over 500 nM.

As to `Cc1nc(Nc2ncc(C(=O)Nc3ccccc3C)s2)cc(N2CCN(CCO)CC2)n1` [Compound A9, 2-((6-(4-(2-hydroxyethyl)piperazin-1-yl)-2-methylpyrimidin-4-yl)amino)-N-(o-tolyl)thiazole-5-carboxamide], the half-inhibitory concentration (IC50) was under 100 nM on SIK1 (setting [1]); under 100 nM on SIK2 (indicative IC50, Table 2A); under 100 nM at SIK3 (setting [2]).

With `Cc1nc(Nc2ncc(C(=O)Nc3ccccc3Cl)s2)cc(N2CCN(CCO)CC2)n1` [Compound A10, N-(2-chlorophenyl)-2-((6-(4-(2-hydroxyethyl)piperazin-1-yl)-2-methylpyrimidin-4-yl)amino)thiazole-5-carboxamide], the IC50 on SIK1 (setting [1]) was under 100 nM; on SIK2 (indicative IC50, Table 2A) it was under 100 nM; at SIK3 (setting [2]), over 100 nM.

In the case of `Cc1nc(Nc2ncc(C(=O)Nc3c(C)cccc3C)s2)cc(N2CCN(CCO)CC2)n1` [Compound A12, N-(2,6-dimethylphenyl)-2-((6-(4-(2-hydroxyethyl)piperazin-1-yl)-2-methylpyrimidin-4-yl)amino)thiazole-5-carboxamide], the IC50 is under 100 nM on SIK1 (setting [1]); under 100 nM at SIK2 (indicative IC50, Table 2A); under 100 nM at SIK3 (setting [2]).

As to `Cc1nc(Nc2ncc(C(=O)Nc3c(Cl)cccc3Cl)s2)cc(N2CCN(CCO)CC2)n1` [Compound A13, N-(2,6-dichlorophenyl)-2-((6-(4-(2-hydroxyethyl)piperazin-1-yl)-2-methylpyrimidin-4-yl)amino)thiazole-5-carboxamide], the 50% inhibitory concentration (IC50) was under 100 nM at SIK1 (setting [1]); under 100 nM at SIK2 (indicative IC50, Table 2A); under 100 nM at SIK3 (setting [2]).

As to `Cc1nc(Nc2ncc(C(=O)Nc3c(Cl)cccc3Br)s2)cc(N2CCN(CCO)CC2)n1` [Compound B1, N-(2-bromo-6-chlorophenyl)-2-((6-(4-(2-hydroxyethyl)piperazin-1-yl)-2-methylpyrimidin-4-yl)amino)thiazole-5-carboxamide], the IC50 on SIK1 (setting [3]) is under 100 nM; at SIK2 (indicative IC50, Table 4), under 100 nM; at SIK3 (setting [4]), under 100 nM; at ABL1 wt, under 100 nM; on SRC (GST-HIS-tag), under 100 nM.

For `Cc1nc(Nc2ncc(C(=O)Nc3c(Br)cccc3Br)s2)cc(N2CCN(CCO)CC2)n1` [Compound B2, N-(2,6-dibromophenyl)-2-((6-(4-(2-hydroxyethyl)piperazin-1-yl)-2-methylpyrimidin-4-yl)amino)thiazole-5-carboxamide], the half-maximal inhibitory concentration (IC50) at SIK1 (setting [3]) was under 100 nM; on SIK2 (indicative IC50, Table 4), under 100 nM; on SIK3 (setting [4]) it was over 100 nM; at ABL1 wt, under 100 nM; on SRC (GST-HIS-tag), under 100 nM.

Take `COc1c(F)cccc1NC(=O)c1cnc(Nc2cc(N3CCN(CCO)CC3)nc(C)n2)s1` [Compound B4, N-(3-fluoro-2-methoxyphenyl)-2-((6-(4-(2-hydroxyethyl)piperazin-1-yl)-2-methylpyrimidin-4-yl)amino)thiazole-5-carboxamide]: the concentration for half-maximal inhibition (IC50) is over 100 nM at SIK1 (setting [3]); over 100 nM on SIK2 (indicative IC50, Table 4); over 1000 nM on SIK3 (setting [4]); under 100 nM on ABL1 wt; under 100 nM at SRC (GST-HIS-tag).

As to `Cc1nc(Nc2ncc(C(=O)Nc3c(C)cccc3Cl)s2)cc(N2CCN(C)CC2)n1` [Compound B5, N-(2-chloro-6-methylphenyl)-2-((2-methyl-6-(4-methylpiperazin-1-yl)pyrimidin-4-yl)amino)thiazole-5-carboxamide], the half-maximal inhibitory concentration (IC50) is under 100 nM on SIK1 (setting [3]); under 100 nM on SIK2 (indicative IC50, Table 4); under 100 nM on SIK3 (setting [4]); under 100 nM on ABL1 wt; under 100 nM on SRC (GST-HIS-tag).

For the compound `CC(=O)N1CCN(c2cc(Nc3ncc(C(=O)Nc4c(C)cccc4Cl)s3)nc(C)n2)CC1` [Compound B6, 2-((6-(4-acetylpiperazin-1-yl)-2-methylpyrimidin-4-yl)amino)-N-(2-chloro-6-methylphenyl)thiazole-5-carboxamide], the IC50 on SIK1 (setting [3]) is under 100 nM; at SIK2 (indicative IC50, Table 4) it was under 100 nM; on SIK3 (setting [4]) it was under 100 nM; at ABL1 wt it was under 100 nM; at SRC (GST-HIS-tag), under 100 nM.

For the compound `Cc1nc(NCCO)cc(Nc2ncc(C(=O)Nc3c(C)cccc3Cl)s2)n1` [Compound B7, N-(2-chloro-6-methylphenyl)-2-((6-((2-hydroxyethyl)amino)-2-methylpyrimidin-4-yl)amino)thiazole-5-carboxamide], the IC50 on SIK1 (setting [3]) was under 100 nM; at SIK2 (indicative IC50, Table 4) it was under 100 nM; on SIK3 (setting [4]) it was under 100 nM; on ABL1 wt it was under 100 nM; at SRC (GST-HIS-tag), under 100 nM.

Turning to `Cc1nc(Nc2ncc(C(=O)Nc3ccc(F)c(Cl)c3)s2)cc(N2CCN(CCO)CC2)n1` [Compound B9], the concentration for half-maximal inhibition (IC50) was over 5000 nM at SIK1; over 500 nM on SIK2 (indicative IC50, Table 4); over 5000 nM on SIK3.
